The nature of data set [1]: HPDE-C7 pancreatic duct cell viability loss – fluorescence, HTS (AID 430). As to conditions: Homo sapiens. Format: functional, cell-based.
Data set [2] is described as follows: viability loss of HPDE-C7K cells – cell-based, fluorescence, HTS, primary screen (AID 431). Format: functional. The following applies: Homo sapiens.
Data set [3] deals with Cytochrome P450 3A4 (Homo sapiens, UniProt P08684). As to conditions: Potency.
In data set [4] the target is Albumin (Bos taurus, UniProt P02769). The data set is described as follows: Counterscreen for inhibitors of T-cell receptor (TCR)-CD3 interaction: Fluorescence-based biochemical high throughput dose response assay to identify inhibitors of T-cell receptor (TCR)-CD3 interaction using a TAMRA-labeled BSA probe. Format: functional.
Albumin, sequence (P02769 whole entry): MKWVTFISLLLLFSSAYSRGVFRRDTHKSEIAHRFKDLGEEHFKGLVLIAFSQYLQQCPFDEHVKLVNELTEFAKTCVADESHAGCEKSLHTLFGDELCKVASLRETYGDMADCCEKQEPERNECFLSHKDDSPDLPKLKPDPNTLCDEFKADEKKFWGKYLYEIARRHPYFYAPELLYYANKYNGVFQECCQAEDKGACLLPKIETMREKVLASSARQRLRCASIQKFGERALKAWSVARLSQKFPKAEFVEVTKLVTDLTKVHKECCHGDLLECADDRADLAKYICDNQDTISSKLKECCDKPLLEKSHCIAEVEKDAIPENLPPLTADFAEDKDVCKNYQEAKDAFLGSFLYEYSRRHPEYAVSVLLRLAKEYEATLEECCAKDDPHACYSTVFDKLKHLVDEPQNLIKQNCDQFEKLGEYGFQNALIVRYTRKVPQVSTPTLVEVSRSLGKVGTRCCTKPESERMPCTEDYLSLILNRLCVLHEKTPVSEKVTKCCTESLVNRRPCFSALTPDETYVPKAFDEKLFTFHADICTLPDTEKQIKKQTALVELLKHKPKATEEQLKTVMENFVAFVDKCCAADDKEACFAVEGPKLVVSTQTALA
Data set [5] addresses T1, Oxysterols receptor LXR-beta (Homo sapiens, UniProt P55055).
T1 sequence (P55055 whole entry): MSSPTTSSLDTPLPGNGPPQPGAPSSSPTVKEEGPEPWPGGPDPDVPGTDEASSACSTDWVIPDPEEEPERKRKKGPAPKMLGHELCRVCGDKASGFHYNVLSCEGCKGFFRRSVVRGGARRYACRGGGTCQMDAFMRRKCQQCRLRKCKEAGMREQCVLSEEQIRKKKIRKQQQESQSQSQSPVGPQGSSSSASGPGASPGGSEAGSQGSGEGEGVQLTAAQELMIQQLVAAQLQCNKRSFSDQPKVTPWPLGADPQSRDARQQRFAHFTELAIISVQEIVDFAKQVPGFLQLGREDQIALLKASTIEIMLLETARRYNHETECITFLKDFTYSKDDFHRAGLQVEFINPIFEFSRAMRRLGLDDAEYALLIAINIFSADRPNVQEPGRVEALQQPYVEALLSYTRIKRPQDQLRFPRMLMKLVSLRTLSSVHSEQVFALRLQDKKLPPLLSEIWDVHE
Format: functional, cell-based.

Data set [6] in a line: cells.
Data set [7] addresses T1, Oxysterols receptor LXR-beta. The data set is described as follows: LXR agonists, Gal4 luciferase reporter, dose response, counter-screen for ssDAF-12 agonist project, cell-based, luminescence, HEK293, S. stercoralis campaign (AID 720737). In kind it is functional. The following applies: read-out: IC50 (the source's name). Background: In a reporter assay the amount or activity of a reporter protein is the signal.

Data set [8] is described as follows: Luminescence-based cell-based high throughput dose response assay to identify activators of the DAF-12 from the parasite S. stercoralis (ssDAF-12). Format: functional.
Data set [9] concerns the target Voltage-dependent T-type calcium channel subunit alpha-1H (Homo sapiens, UniProt O95180). Format: functional.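 Also: channel activity triggered by adding a high calcium stimulation buffer.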
The nature of data set [10]: HIV-1 Vif–A3G interaction blockers – biochemical, TR-FRET, GST-Vif 1-94, biotin-A3G peptide, dose response retest, primary screen (AID 1117319).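 Also: TR-FRET signal of purified GST-Vif binding a biotinylated A3G peptide; inhibitors lower the FRET signal by blocking Vif and A3G binding.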 In kind it is functional. (In TR-FRET formats the signal depends on donor and acceptor labels being close together.)
The target in data set [11] is T2, Heat shock factor protein 1 (Mus musculus, UniProt P38532).
T2 sequence (P38532 whole entry): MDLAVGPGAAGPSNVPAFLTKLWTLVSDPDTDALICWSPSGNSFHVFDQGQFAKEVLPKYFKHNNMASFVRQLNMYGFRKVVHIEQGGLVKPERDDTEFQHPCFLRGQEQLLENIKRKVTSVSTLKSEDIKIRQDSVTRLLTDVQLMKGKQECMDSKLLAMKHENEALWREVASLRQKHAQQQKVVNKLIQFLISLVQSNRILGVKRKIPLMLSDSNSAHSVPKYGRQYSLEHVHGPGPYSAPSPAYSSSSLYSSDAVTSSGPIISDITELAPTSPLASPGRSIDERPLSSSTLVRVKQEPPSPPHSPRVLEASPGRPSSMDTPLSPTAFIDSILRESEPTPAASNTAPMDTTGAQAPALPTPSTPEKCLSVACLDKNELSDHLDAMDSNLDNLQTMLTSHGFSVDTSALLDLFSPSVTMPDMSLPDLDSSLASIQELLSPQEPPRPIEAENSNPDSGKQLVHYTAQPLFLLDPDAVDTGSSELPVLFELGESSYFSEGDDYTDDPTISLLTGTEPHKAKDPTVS
In words: decrease of HSF1-responsive luciferase luminescence – cell-based, NIH3T3, dose retest, confirmation (AID 2382).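 Also: NIH3T3 fibroblasts with HSF1-driven luciferase reporter stressed by proteasome inhibitor MG132; luminescence from HSF1-driven luciferase expression after 8 hours of MG132 stress.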 Format: functional.

Data set [12] addresses T3, Aminopeptidase N (Plasmodium falciparum FcB1/Columbia, UniProt O96935).
T3 sequence (O96935 whole entry): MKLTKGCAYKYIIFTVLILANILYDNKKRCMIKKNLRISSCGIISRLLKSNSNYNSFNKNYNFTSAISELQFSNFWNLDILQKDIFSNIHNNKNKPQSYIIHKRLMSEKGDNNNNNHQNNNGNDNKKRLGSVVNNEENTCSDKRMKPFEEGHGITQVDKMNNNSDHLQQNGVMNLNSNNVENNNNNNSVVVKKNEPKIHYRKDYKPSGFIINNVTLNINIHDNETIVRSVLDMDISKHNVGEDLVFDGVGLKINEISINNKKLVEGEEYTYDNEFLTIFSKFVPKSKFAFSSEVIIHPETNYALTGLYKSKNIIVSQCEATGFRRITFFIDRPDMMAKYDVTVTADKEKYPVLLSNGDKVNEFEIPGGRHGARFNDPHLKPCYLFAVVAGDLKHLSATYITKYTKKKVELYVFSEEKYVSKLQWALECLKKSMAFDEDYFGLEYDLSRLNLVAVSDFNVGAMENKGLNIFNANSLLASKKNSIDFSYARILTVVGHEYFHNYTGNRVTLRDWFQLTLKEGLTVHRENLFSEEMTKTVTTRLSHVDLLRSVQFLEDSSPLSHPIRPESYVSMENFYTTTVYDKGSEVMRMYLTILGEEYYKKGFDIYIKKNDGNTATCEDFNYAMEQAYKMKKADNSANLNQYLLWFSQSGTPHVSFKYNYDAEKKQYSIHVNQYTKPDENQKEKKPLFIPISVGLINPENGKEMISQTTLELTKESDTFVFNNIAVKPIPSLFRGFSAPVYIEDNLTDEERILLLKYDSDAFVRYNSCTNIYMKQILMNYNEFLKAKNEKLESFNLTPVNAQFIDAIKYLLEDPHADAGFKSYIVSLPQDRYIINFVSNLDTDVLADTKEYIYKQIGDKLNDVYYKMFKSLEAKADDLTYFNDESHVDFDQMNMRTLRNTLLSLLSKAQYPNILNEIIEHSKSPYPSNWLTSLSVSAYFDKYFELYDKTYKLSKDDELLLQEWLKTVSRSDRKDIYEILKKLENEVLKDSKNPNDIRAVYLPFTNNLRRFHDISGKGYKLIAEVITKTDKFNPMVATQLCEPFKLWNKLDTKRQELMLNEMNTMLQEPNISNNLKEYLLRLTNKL
The data set is described as follows: malaria alanyl aminopeptidase activity blockers – biochemical, fluorogenic H-Leu-NHMec substrate, 1536-well (AID 1445). Further details: species or system Plasmodium falciparum 3D7, 3D7.

For data set [13], the target named is T4, Fatty acid synthase (Homo sapiens, UniProt P49327). In words: inhibition of human FAS-TE enzyme activity – biochemical, kinetic fluorescence intensity, dose response (AID 624326).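 Also: rate of fluorescence rise from hydrolysis of a fluorogenic O-methyl fluorescein ester substrate.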 In kind it is functional.
Data set [14] concerns the target T4, Fatty acid synthase. In words: inhibition of human FAS-TE enzyme activity – biochemical, endpoint fluorescence intensity, uHTS hits, dose response (AID 624327).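 Also: fluorescence from hydrolysis of an O-methyl fluorescein acyl ester substrate by the enzyme.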 In kind it is functional.
The target of data set [15] is Cytochrome P450 2C9 (Homo sapiens, UniProt P11712).
Cytochrome P450 2C9, sequence (P11712 whole entry): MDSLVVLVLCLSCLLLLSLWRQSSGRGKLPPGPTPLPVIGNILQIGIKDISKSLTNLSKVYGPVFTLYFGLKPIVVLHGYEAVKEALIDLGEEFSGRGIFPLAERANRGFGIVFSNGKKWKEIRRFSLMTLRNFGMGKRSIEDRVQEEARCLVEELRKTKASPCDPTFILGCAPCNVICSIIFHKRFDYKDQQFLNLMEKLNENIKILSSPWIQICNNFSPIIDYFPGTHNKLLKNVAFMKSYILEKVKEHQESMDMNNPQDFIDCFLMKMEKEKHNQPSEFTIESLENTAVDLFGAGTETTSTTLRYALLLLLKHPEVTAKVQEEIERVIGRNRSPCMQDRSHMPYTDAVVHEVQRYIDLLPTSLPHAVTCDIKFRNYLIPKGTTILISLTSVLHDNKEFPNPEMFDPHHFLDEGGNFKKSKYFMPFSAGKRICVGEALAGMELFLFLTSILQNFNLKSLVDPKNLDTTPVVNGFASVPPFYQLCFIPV
The nature of data set [16]: Luminescence Cell-Based Dose Retest to Confirm Inhibitors of Cancer Stem Cells. [Related pubchem assays (depositor defined):AID2717, AID2721]. As to conditions: Homo sapiens. Format: functional.
In data set [17] the target is T2, Heat shock factor protein 1. The data set is described as follows: enhancement of HSF1-driven luciferase signal – cell-based, NIH3T3, luminescence, dose retest, confirmation (AID 435004).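 Also: stress induced by proteasome inhibitor MG132 added 30 min after compound; luciferase reporter driven by HSF1 response element in NIH3T3 cells; actives raise luminescence as potentiators of the MG132 stress response.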 Format: functional.
A short description of data set [18]: blockers of HIV-1 ZM109 envelope-driven cell-cell fusion – HeLa effector, CEM target cells, luciferase, cherry-pick, dose response (AID 652058).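 Also: luciferase signal from HIV-1 Env mediated cell-cell fusion of effector and target cells.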 In kind it is functional, cell-based.
Data set [19] is described as follows: HIV-1 AD8 envelope cell-cell fusion blockers – cherry-pick, dose response (AID 652062).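 Also: luciferase signal from cell-cell fusion driven by HIV-1 clade B AD8 Env; potency is for inhibitors of fusion seen as a drop in luminescence.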 Format: functional, cell-based.
Data set [20] is described as follows: blockers of HIV-1 envelope-mediated cell-cell fusion – cherry-pick, dose response (AID 652057). In kind it is functional, cell-based.

Counter-ions that a name gives are not always drawn. Calls of active or inactive are those of the source. A value given as a limit tells only on which side of the number the result lay.

Voltage-dependent T-type calcium channel subunit alpha-1H, sequence (O95180 whole entry): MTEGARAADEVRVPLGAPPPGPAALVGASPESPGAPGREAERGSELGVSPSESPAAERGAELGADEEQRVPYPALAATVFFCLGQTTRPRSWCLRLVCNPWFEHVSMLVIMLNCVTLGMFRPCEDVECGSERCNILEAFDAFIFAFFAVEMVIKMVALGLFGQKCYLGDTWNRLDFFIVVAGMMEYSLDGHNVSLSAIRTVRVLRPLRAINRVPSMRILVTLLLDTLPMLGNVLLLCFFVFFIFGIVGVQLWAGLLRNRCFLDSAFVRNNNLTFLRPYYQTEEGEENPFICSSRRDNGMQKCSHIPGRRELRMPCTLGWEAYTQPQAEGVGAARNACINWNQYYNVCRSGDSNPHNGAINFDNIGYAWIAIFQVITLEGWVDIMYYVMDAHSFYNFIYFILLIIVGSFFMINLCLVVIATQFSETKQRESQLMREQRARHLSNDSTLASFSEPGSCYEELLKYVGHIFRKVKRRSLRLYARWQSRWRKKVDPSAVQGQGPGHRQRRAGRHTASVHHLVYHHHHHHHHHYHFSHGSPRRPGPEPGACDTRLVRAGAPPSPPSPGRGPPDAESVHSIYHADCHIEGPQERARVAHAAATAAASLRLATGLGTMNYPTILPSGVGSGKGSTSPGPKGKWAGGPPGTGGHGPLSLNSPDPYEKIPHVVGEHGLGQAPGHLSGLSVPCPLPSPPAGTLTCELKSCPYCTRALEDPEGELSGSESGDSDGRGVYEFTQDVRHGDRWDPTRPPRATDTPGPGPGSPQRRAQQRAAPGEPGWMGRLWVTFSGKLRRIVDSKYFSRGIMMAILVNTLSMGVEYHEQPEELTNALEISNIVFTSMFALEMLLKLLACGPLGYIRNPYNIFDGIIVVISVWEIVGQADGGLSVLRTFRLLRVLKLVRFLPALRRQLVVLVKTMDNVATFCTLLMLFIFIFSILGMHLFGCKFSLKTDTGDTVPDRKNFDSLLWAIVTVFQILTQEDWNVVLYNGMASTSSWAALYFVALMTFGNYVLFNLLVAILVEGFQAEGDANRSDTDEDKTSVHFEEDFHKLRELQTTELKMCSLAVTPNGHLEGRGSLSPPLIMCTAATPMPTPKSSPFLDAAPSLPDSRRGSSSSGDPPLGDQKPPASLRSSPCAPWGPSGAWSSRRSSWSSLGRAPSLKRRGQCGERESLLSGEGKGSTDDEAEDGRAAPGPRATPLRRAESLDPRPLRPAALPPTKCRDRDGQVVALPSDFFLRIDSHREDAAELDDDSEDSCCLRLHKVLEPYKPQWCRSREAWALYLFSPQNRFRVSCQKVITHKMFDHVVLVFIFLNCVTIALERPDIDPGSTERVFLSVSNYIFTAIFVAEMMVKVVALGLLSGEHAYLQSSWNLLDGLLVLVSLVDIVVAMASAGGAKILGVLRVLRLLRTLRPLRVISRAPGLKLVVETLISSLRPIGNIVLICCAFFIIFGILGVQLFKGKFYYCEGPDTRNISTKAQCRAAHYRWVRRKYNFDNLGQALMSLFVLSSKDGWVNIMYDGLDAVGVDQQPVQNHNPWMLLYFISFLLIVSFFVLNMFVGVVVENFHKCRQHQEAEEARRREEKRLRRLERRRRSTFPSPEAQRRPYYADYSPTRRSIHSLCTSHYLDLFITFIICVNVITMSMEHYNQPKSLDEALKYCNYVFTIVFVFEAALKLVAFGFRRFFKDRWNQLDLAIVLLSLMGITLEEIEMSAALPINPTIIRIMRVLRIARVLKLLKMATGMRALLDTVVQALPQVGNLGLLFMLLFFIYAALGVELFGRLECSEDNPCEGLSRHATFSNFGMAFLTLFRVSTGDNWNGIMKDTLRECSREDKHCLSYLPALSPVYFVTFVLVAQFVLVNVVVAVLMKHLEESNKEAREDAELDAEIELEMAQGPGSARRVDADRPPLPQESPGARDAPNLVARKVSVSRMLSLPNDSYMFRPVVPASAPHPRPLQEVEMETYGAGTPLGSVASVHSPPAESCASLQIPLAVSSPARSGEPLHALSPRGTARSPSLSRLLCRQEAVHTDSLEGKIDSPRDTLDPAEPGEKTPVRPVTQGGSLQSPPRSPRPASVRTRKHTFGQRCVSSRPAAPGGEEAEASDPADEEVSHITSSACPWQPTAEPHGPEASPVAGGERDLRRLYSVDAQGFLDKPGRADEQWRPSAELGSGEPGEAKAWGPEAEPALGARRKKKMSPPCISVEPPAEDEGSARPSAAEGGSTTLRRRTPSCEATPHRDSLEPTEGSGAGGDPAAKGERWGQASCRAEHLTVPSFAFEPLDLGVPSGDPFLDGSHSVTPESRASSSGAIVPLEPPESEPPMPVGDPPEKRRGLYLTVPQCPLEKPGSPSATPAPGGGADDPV
Cytochrome P450 3A4, sequence (P08684 whole entry): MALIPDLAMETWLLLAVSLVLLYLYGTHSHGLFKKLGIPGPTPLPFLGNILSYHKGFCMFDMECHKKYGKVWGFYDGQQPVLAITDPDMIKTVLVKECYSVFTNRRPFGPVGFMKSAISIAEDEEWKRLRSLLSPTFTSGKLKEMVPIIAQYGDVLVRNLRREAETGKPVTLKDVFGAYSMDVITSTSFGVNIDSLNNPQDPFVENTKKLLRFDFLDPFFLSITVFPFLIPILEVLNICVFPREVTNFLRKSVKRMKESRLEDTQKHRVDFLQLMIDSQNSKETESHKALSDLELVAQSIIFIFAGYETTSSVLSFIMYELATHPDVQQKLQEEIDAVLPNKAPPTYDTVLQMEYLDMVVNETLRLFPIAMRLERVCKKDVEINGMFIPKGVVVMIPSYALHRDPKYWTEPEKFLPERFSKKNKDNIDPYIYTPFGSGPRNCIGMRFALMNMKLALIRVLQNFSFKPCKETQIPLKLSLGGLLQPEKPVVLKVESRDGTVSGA

Consider `CC1=C(/C=C/C(C)=C/C=C/C(C)=C/C(=O)O)C(C)(C)CCC1` [TRETINOIN], for which the EC50 in [1] and in data set [2] was > 20 µM (not active) in each case. Moreover, in data set [3], the half-maximal activity concentration (AC50) (as a rule, the concentration giving half of the maximal activity seen) is 39.8 µM (inconclusive).

With `COc1ccccc1C(=O)NNC(=O)c1ccc(NC(=O)CC(C)C)cc1`, in data set [4], the IC50 – broadly, the concentration that gives 50% inhibition – is > 94.1 µM (inactive).

For the compound `CC(C)NC1=NN=C(c2cccs2)CS1`, the EC50 in data set [5] and in [6] was > 67.6 µM (inactive) in each case.

For `CN1C(=O)C(CC(=O)Nc2ccc(F)cc2)N(Cc2cccs2)C1=S` (centres undefined), the EC50 in data set [7] was > 67.5 µM (inactive). Moreover, the IC50 in [8] was > 67.5 µM (inactive).

Consider `CN(C)S(=O)(=O)N(CC(=O)Nc1ccc2ccccc2c1)c1ccccc1`, for which the EC50 in [9] is 3.79 µM (active).

Regarding `CN(C)NC1CCS(=O)(=O)C1` (centres undefined), the IC50 in data set [10] is > 100 µM (active).

For the compound `CC(/C=N/NC(=O)Cn1cnc2ccccc21)=C\c1ccccc1`, the EC50 in data set [7] is > 67.5 µM (inactive); in [11] it was > 195 µM (not active). In data set [8], the IC50 is > 67.5 µM (inactive).

Take `COC(=O)NC(/C=C/c1ccccc1)[C@]1(C(C)=O)CCCC1=O` (some centres undefined): the AC50 in [3] is 3.98 µM (inconclusive).

Regarding `Cc1c(C(c2ccccc2Cl)c2c(O)oc3ccccc3c2=O)c(=O)n(-c2ccccc2)n1C` (centres undefined), the IC50 in [12] is 77.1 µM (active).

Consider `O=C(NC(C(=O)N/N=C/c1cc([N+](=O)[O-])ccc1O)c1nnc(O)c2ccccc12)c1ccccc1` (centres undefined), for which the IC50 is 2.55 µM (active) in [13], 2.76 µM (active) in data set [14] and > 94.1 µM (inactive) in [4].

As to `O=C(NCc1ccc2c(c1)OCO2)C1CC(c2cccc(Br)c2)=NO1` (centres undefined), the AC50 entry in data set [15] is on record as “inconclusive”. Moreover, in data set [9], the EC50 was 1.96 µM (active).

Take `CCCCN(C(=O)CSc1cc(C)c2ccc(OC)cc2n1)c1c(N)n(Cc2ccccc2)c(=O)[nH]c1=O`: the EC50 in [7] was > 67.5 µM (inactive). For the same compound, the IC50 in data set [8] was > 67.5 µM (inactive).

With `NNCc1ccccc1` [BENZYLHYDRAZINE HYDROCHLORIDE], the AC50 in data set [3] is 7.94 µM (inconclusive).

In the case of `Cc1oc(-c2ccc(-c3ccccc3)cc2)nc1CN(CCO)C(C)C`, the EC50 in [5] and in data set [6] was > 67.5 µM (inactive) each time.

For `O=C(CSc1nnc(-c2ccccc2O)n1Cc1ccccc1)NNC(=O)c1ccccc1O`, the IC50 is > 94.1 µM (inactive) in data set [4] and 130 µM (active) in data set [12]. In addition, in data set [16], the AC50 was 7.6 µM (active).

As for `O=c1c(O)c(-c2ccccc2)oc2ccccc12` [FLAVONOL], the half-maximal activity concentration (AC50) in data set [3] is 25.1 µM (inconclusive).

For `COC(=O)[C@@H](Cc1c[nH]c2ccccc12)NC(=O)c1ccc2c(c1)OCO2`, the EC50 in [17] is > 260 µM (inactive); in data set [7], > 67.6 µM (inactive). The IC50 in [8] was > 67.6 µM (inactive).

Consider `CO[C@H](CN(C)S(=O)(=O)c1ccc(Cl)cc1)[C@H](C)CN([C@@H](C)CO)S(=O)(=O)c1cccc(Cl)c1`, for which the AC50 is 3.66 µM (active) in [18], 17.6 µM (active) in data set [19] and 3.31 µM (active) in data set [20].

On to `Cc1cccc(OCCNC(=O)c2cncc(Br)c2)c1`, for which the EC50 in data set [7] was > 67.5 µM (inactive). Further, the IC50 in data set [8] is > 67.5 µM (inactive).

For `CCn1c(SCc2nc(-c3ccccc3)no2)nc2ccccc21`, the EC50 in [9] was 331 µM (active).

Turning to `CN(C)c1ccc(-c2cc3ccccc3c(=O)o2)cc1`, the EC50 in data set [5] and in data set [6] was > 67.6 µM (inactive) throughout.

Turning to `COc1cc2c(cc1OC)C(=O)OC2` [METAMECONINE], in data set [3], the AC50 is 12.6 µM (inconclusive).

Take `CCOc1ccc2[nH]c(SCc3ccc(C(=O)OC)o3)nc2c1`: in data set [17], the EC50 was > 260 µM (inactive). In addition, in data set [10], the IC50 was > 100 µM (active).

On to `COc1ccc(OC)c(C2C3=C(O)CCCC3=NC(C)=C2C(=O)Nc2cccnc2)c1` (centres undefined), for which, in data set [12], the IC50 was 52.9 µM (active).

Consider `c1ccc(N2CC3COc4ccccc4C3=N2)cc1` (centres undefined), for which the EC50 in data set [5] and in [6] was > 67.4 µM (inactive) each time.

On to `O=Cc1cn(CC(=O)N2CCCc3ccccc32)c2ccccc12`, for which the IC50 in [12] was 22.8 µM (active).

In the case of `COc1ccc2cc(C3(C)NC(=O)N(CC(=O)Nc4c(C)n(C)n(-c5ccccc5)c4=O)C3=O)ccc2c1` (centres undefined), the half-maximal inhibitory concentration (IC50) in [10] was > 100 µM (active).

On to `CCCC(c1nnnn1Cc1ccco1)N1CCN(c2cc(Cl)ccc2C)CC1` (centres undefined), for which, in data set [9], the EC50 is 0.728 µM (active).

The values above are taken from ChEMBL document CHEMBL1201862, “PubChem BioAssay data set” (2004).
